Here are results for 22 compounds from US9611252B2 (LifeSci Pharmaceuticals, Inc., priority 2013, dated 2017).

Bounds are passed on as bounds.

The target in one test is human Plasma Kallikrein (Homo sapiens (Human), UniProt P03952). Nature of the test: In vitro enzyme inhibition of human plasma kallikrein (PFR-AMC cleavage). The class given is biochemical. Particulars: human plasma kallikrein, Pro-Phe-Arg-AMC substrate, 37° C.; read-out: hPK IC50. Put shortly:
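Compound pre-incubated with human plasma kallikrein 5 min at 37° C in 50 mM Tris-HCl pH 7.5, 150 mM NaCl, 0.01% Triton X-100. Reaction started with PFR-AMC, cleavage read kinetically at 37° C every 43 s for 1 h.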

The next test addresses kallikrein (Homo sapiens (Human), UniProt P03952). In words: In vitro cellular assay (contact assay): kallikrein activity in ellagic acid-activated human plasma, substrate Z-FR-2-AMC. The class given is biochemical. The conditions noted are these: human plasma activated with ellagic acid, Z-FR-2-AMC substrate, 37° C.; read-out: Contact Assay EC50. The method, then:
The ability of the compounds disclosed herein to inhibit cellular kallikrein activity was quantified and the respective EC50 value was determined.
All dilutions were prepared in an assay buffer comprising 50 mM Tris-HCl pH 7.2, 150 mM NaCl, and 0.01% Triton X-100.
The ten solutions of the test compounds, prepared by serial dilution, were further diluted 50-fold in the assay buffer.
Human plasma is thawed on ice and centrifuged for 15 min at 4° C. to remove platelets. A 1 mM stock solution of ellagic acid is diluted to 8 μM and mixed with human plasma, after removing platelets, at a ratio of 1:0.8.
A 22.5 μL volume of the final mixture of human plasma and ellagic acid was added to a 96-well microwell plate and the plate was incubated for 15 min at 37° C.
The CINH inhibitor at various concentrations, prepared by serial dilutions as described above, were added to the inhibitor control wells. […] Each CINH concentration is tested in duplicates.
The test compounds at various concentrations, also prepared by serial dilutions as described above, are added to the test wells. […] Each test compound concentration was tested in duplicates.
In addition to the inhibitor control and test wells, the 96 well assay plate includes positive control wells which contained the mixture of human plasma and ellagic acid without C1NH inhibitor or test compounds, and background wells which contained neither the mixture of human plasma and ellagic acid nor the test compounds. The total volume of liquid in positive control and background wells was brought up to 35 μL, using the assay buffer.
The assay plate containing C1NH inhibitors and test compounds mixed with human plasma and ellagic acid and appropriate controls was incubated at 37° C. for 5 min. […] The reagents were mixed well by shaking the plate gently for 30 sec.
The enzyme reaction was quantified by immediate kinetic reading of the assay plate using excitation/emission wavelengths of 330 nm/440 nm respectively. Fluorescence intensity was recorded for 60 min, using a time interval of 43 sec.
The inhibition activity of the test compounds were evaluated using the IC50 values, calculated according to the dose-response curve of the test compounds, fitted using the “log(inhibitor)-response (variable slope)” equation in GraphPadPrism software (GraphPad Software, Inc.).
The percentage inhibition was calculated using the following equation:
[formula] where, Mean(BG) is the average value of the fluorescence intensity of the background wells and Mean(PC) is the average value of the fluorescence intensity of the positive control wells.
Table 4 provides the EC50 values of various compounds disclosed herein.

kallikrein, sequence (P03952 20-638): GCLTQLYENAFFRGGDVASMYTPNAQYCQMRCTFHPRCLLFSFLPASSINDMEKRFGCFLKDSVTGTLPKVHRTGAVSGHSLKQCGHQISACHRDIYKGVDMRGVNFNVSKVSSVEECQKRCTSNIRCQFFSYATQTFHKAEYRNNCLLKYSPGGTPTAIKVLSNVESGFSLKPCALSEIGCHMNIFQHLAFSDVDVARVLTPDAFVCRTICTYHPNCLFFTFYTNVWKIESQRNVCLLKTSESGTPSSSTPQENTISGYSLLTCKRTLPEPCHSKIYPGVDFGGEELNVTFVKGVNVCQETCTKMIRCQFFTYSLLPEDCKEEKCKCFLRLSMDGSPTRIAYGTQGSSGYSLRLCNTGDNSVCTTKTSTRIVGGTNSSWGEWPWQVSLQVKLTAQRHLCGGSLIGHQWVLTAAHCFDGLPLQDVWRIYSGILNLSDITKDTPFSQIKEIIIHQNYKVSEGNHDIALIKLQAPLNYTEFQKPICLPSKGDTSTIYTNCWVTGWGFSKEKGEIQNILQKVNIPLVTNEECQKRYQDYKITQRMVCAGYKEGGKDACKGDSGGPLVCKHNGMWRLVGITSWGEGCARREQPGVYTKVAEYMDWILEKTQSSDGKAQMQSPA
human Plasma Kallikrein, sequence (P03952 20-638): as above

For `Cc1cnc2c(C(N)=O)cc(Cc3cc(C(=O)NCc4ccc5c(N)nccc5c4)ccn3)cc2c1` [Example 79, 6-((4-(((1-aminoisoquinolin-6-yl)methyl)carbamoyl)pyridin-2-yl)methyl)-3-methylquinoline-8-carboxamide], the IC50 on human Plasma Kallikrein was less than 0.1 µM. At kallikrein, the EC50 is less than 0.1 µM.

For the compound `Cc1cnc2c(C(N)=O)cc(Cc3cc(C(=O)NCc4cnc5[nH]cc(Cl)c5c4)ccn3)cc2c1` [Example 80, 6-((4-(((3-chloro-1H-pyrrolo[2,3-b]pyridin-5-yl)methyl)carbamoyl)pyridin-2-yl)methyl)-3-methylquinoline-8-carboxamide], the IC50 on human Plasma Kallikrein is less than 0.1 µM. Besides, the EC50 on kallikrein was less than 0.1 µM.

Take `Cc1cnc2c(C(N)=O)cc(Cc3cc(C(=O)NCc4ccc5[nH]cc(Cl)c5c4F)ccn3)cc2c1` [Example 81, 6-((4-(((3-chloro-4-fluoro-1H-indol-5-yl)methyl)carbamoyl)pyridin-2-yl)methyl)-3-methylquinoline-8-carboxamide]: the IC50 on human Plasma Kallikrein is less than 0.1 µM. In addition, the EC50 at kallikrein fell in the range of 0.1 to 1 µM.

`Cc1cnc2c(C(N)=O)cc(Cc3cc(C(=O)NCc4n[nH]c5ccc(Cl)cc45)ccn3)cc2c1` [Example 82, 6-((4-(((5-chloro-1H-indazol-3-yl)methyl)carbamoyl)pyridin-2-yl)methyl)-3-methylquinoline-8-carboxamide]: at human Plasma Kallikrein, the half-maximal inhibitory concentration (IC50) is less than 0.1 µM. For the same compound, the EC50 at kallikrein is 0.1 to 1 µM.

For the compound `Cc1cnc2c(C(N)=O)cc(Cc3cc(C(=O)NCc4cc5cc[nH]c5cc4F)ccn3)cc2c1` [Example 83, 6-((4-(((6-fluoro-1H-indol-5-yl)methyl)carbamoyl)pyridin-2-yl)methyl)-3-methylquinoline-8-carboxamide], the IC50 on human Plasma Kallikrein was less than 0.1 µM. Besides, the EC50 on kallikrein was 0.1 to 1 µM.

As to `Cc1cnc2c(C(=O)O)cc(Cc3cc(C(=O)NCc4c(C)cc(N)nc4C)ccn3)cc2c1` [Example 84, 6-((4-(((6-amino-2,4-dimethylpyridin-3-yl)methyl)carbamoyl)pyridin-2-yl)methyl)-3-methylquinoline-8-carboxylic acid], at human Plasma Kallikrein, the IC50 is less than 0.1 µM. Also, the EC50 on kallikrein was less than 0.1 µM.

With `Cc1cc(N)nc(C)c1CNC(=O)c1ccnc(Cc2cc(F)c3ncc(Cl)cc3c2)c1` [Example 89, N-(6-amino-2,4-dimethyl-pyridin-3-ylmethyl)-2-(3-chloro-8-fluoro-quinolin-6-ylmethyl)-isonicotinamide], the IC50 at human Plasma Kallikrein is less than 0.1 µM. Moreover, at kallikrein, the EC50 is less than 0.1 µM.

Turning to `Cc1nc(N)ccc1CNC(=O)c1ccnc(Cc2cc(F)c3ncc(Cl)cc3c2)c1` [Example 91, N-(6-amino-2-methyl-pyridin-3-ylmethyl)-2-(3-chloro-8-fluoro-quinolin-6-ylmethyl)-isonicotinamide], on human Plasma Kallikrein, the IC50 was less than 0.1 µM. In addition, the EC50 at kallikrein was less than 0.1 µM.

As for `Cc1cc(N)nc(C)c1CNC(=O)c1ccnc(Cc2cc(Cl)c3ncc(Cl)cc3c2)c1` [Example 100, N-((6-amino-2,4-dimethylpyridin-3-yl)methyl)-2-((3,8-dichloroquinolin-6-yl)methyl)isonicotinamide], at human Plasma Kallikrein, the IC50 was less than 0.1 µM. In addition, the EC50 at kallikrein was less than 0.1 µM.

As to `Cc1ccc2cc(Cc3cc(C(=O)NCc4cc5c(Cl)c[nH]c5cc4F)ccn3)ccc2n1` [Example 110, N-((3-chloro-6-fluoro-1H-indol-5-yl)methyl)-2-((2-methylquinolin-6-yl)methyl)isonicotinamide], the IC50 at human Plasma Kallikrein is less than 0.1 µM. Further, the EC50 on kallikrein is 0.1 to 1 µM.

Take `Cc1ccc2cc(Cc3cc(C(=O)NCc4ccc5c(N)nccc5c4)ccn3)ccc2n1` [Example 111, N-((1-aminoisoquinolin-6-yl)methyl)-2-((2-methylquinolin-6-yl)methyl)isonicotinamide]: the IC50 on human Plasma Kallikrein was less than 0.1 µM. For the same compound, the EC50 on kallikrein lay in the range of 0.1 to 1 µM.

For the compound `Cc1ccc2cc(Cc3cc(C(=O)NCc4c(C)cc(N)nc4C)ccn3)ccc2n1` [Example 113, N-((6-amino-2,4-dimethylpyridin-3-yl)methyl)-2-((2-methylquinolin-6-yl)methyl)isonicotinamide], the IC50 at human Plasma Kallikrein is less than 0.1 µM. Moreover, the concentration giving a half-maximal response (EC50) at kallikrein is less than 0.1 µM.

Turning to `Cc1ccc2ncc(Cc3cc(C(=O)NCc4c(C)cc(N)nc4C)ccn3)cc2c1` [Example 114, N-((6-amino-2,4-dimethylpyridin-3-yl)methyl)-2-((6-methylquinolin-3-yl)methyl)isonicotinamide], on human Plasma Kallikrein, the IC50 is less than 0.1 µM. Also, on kallikrein, the EC50 was less than 0.1 µM.

Take `Cc1ccc2ncc(Cc3cc(C(=O)NCc4ccc5c(N)nccc5c4)ccn3)cc2c1` [Example 115, N-((1-aminoisoquinolin-6-yl)methyl)-2-((6-methylquinolin-3-yl)methyl)isonicotinamide]: the IC50 on human Plasma Kallikrein is less than 0.1 µM. On kallikrein, the EC50 is less than 0.1 µM.

With `Cc1ccc2ncc(Cc3cc(C(=O)NCc4cc5c(Cl)c[nH]c5cc4F)ccn3)cc2c1` [Example 116, N-((3-chloro-6-fluoro-1H-indol-5-yl)methyl)-2-((6-methylquinolin-3-yl)methyl) isonicotinamide], the IC50 on human Plasma Kallikrein was less than 0.1 µM. Further, the EC50 on kallikrein was in the range of 0.1 to 1 µM.

Consider `Cc1ccc2ncc(Cc3cc(C(=O)NCc4ccc(N)nc4C)ccn3)cc2c1` [Example 117, N-((6-amino-2-methylpyridin-3-yl)methyl)-2-((6-methylquinolin-3-yl)methyl)isonicotinamide], for which the IC50 on human Plasma Kallikrein was less than 0.1 µM. Besides, the EC50 at kallikrein lay within 0.1 to 1 µM.

For the compound `Nc1nccc2cc(CNC(=O)c3ccnc(Cc4cnc5ccc(F)cc5c4)c3)ccc12` [Example 118, N-((1-aminoisoquinolin-6-yl)methyl)-2-((6-fluoroquinolin-3-yl)methyl)isonicotinamide], on human Plasma Kallikrein, the IC50 was less than 0.1 µM. At kallikrein, the EC50 was less than 0.1 µM.

With `Cc1cc2cc(Cc3cc(C(=O)NCc4ccc5c(N)nccc5c4)ccn3)ccc2cn1` [Example 132, N-((1-aminoisoquinolin-6-yl)methyl)-2-((3-methylisoquinolin-6-yl)methyl)isonicotinamide], the IC50 on human Plasma Kallikrein is less than 0.1 µM. At kallikrein, the EC50 is 0.1 to 1 µM.

As for `Cc1cnc2ccc(Cc3cc(C(=O)NCc4ccc5c(N)nccc5c4)ccn3)cc2c1` [Example 142, N-((1-aminoisoquinolin-6-yl)methyl)-2-((3-methylquinolin-6-yl)methyl)isonicotinamide], the IC50 at human Plasma Kallikrein is less than 0.1 µM. For the same compound, the EC50 at kallikrein is less than 0.1 µM.

As for `Cc1cnc2ccc(Cc3cc(C(=O)NCc4cc5c(Cl)c[nH]c5cc4F)ccn3)cc2c1` [Example 143, N-((3-chloro-6-fluoro-1H-indol-5-yl)methyl)-2-((3-methylquinolin-6-yl)methyl)isonicotinamide], the 50% inhibitory concentration (IC50) on human Plasma Kallikrein is less than 0.1 µM. Besides, on kallikrein, the EC50 was 0.1 to 1 µM.

With `Cc1cnc2ccc(Cc3cc(C(=O)NCc4c(C)cc(N)nc4C)ccn3)cc2c1` [Example 144, N-((6-amino-2,4-dimethylpyridin-3-yl)methyl)-2-((3-methylquinolin-6-yl)methyl)isonicotinamide], the IC50 at human Plasma Kallikrein was less than 0.1 µM. For the same compound, the EC50 at kallikrein was less than 0.1 µM.

For the compound `Cc1cc2cc(Cc3cc(C(=O)NCc4c(C)cc(N)nc4C)ccn3)ccc2cn1` [Example 145, N-((6-amino-2,4-dimethylpyridin-3-yl)methyl)-2-((3-methylisoquinolin-6-yl)methyl)isonicotinamide], on human Plasma Kallikrein, the IC50 is less than 0.1 µM. The EC50 at kallikrein is less than 0.1 µM.

Usually IC50 stands for the midpoint of a concentration-inhibition curve. What is called EC50 is the concentration giving half of the maximal effect.
